Laboratory results from patent publication US7094754B2, “Anti-aging and wound healing compounds” (Kimberly-Clark Worldwide, Inc., priority 2001, dated 2006).

Experiments:
pro-MMP-9 = pro-MMP-9 (Homo sapiens, UniProt P14780); assay: Anti-activation (splicing) assay, pro-MMP-9 with stromilysin, HPLC; format: biochemical; details: 0.5 μM or 1.0 μM peptide, 80 minute time course
Method: FIG. 12 illustrates the conversion of pro-MMP-9 into N-terminal and C-terminal domains by stromilysin. […] At the times indicated, an aliquot was removed and subjected to HPLC. The pro-MMP peak area was integrated and was set to 100 percent for the zero time point sample.
The assay measures how much proenzyme is converted into mature matrix metalloproteinase. Proenzyme pro-MMP-9 (100 μg) was mixed with 0.5 μg of stromilysin in PBS. The reaction was incubated at 35° C. Aliquots were removed from the reaction over an 80 minute time course. […] The zero (injection) time point was a single peak that elutes from the column in approximately 750 seconds. This peak reduces in size as a function of time, and two new peaks appear. The first peak elutes at approximately 800 seconds, and represents the mature form of MMP-9. The second peak elutes at approximately 1100 seconds, and corresponds to the N-terminal pro-domain fragment. Peak areas were determined by integrating over the elution profile, and the percent area changes were plotted.
The first peak, eluting at approximately 700 seconds, is pro-MMP-9. As the splicing reaction proceeds, this peak decreases in intensity (as marked with the downwards arrow), and two new peaks appear. The first new peak, eluting at approximately 800 seconds, is mature and active MMP-9. The second new peak, eluting at approximately 1050 seconds, is the prodomain. […]

MMP-9 = biological target: T1, MMP-9 (Homo sapiens, UniProt P14780); assay: Isothermal titration calorimetry with MMP-9; format: binding
T1 construct: Active MMP-9 enzyme was purchased from Calbiochem; purchased Calbiochem
T1 sequence (P14780 107-707 limits assumed): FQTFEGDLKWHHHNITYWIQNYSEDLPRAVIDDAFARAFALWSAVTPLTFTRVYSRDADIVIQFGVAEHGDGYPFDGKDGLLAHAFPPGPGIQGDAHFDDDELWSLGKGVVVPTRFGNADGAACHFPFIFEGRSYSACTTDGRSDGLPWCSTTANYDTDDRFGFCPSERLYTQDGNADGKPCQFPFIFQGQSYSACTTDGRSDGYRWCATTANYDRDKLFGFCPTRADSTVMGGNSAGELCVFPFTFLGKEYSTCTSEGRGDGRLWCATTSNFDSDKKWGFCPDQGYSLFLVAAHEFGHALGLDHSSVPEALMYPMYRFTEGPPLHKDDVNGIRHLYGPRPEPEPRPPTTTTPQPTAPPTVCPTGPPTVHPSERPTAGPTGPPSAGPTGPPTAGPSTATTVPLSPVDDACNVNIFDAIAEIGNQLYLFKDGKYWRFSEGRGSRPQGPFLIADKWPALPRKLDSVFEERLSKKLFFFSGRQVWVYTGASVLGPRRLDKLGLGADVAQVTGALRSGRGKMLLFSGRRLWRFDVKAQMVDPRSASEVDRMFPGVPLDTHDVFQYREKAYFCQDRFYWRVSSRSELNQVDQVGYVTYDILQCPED
Method: Isothermal titration calorimetry (ITC) was performed with a VP-ITC instrument from MicroCal, hIc. Titrations were carried out by injecting 5 μL of an inhibitor peptide solution (at concentration ranges from 0.5 mM to 2.0 mM) into the 1.4 mL stirred reaction cell. […] Titrations were conducted between 20° C. and 40° C. Typical experimental conditions for the titrations were a 10 second injection period followed by a 240 second delay between injections for a total of 40 injections. Blank titrations of inhibitor peptide into buffer were performed in order to correct for heats of dilution and mixing.
The independent set of multiple binding sites is the most common model for binding experiment evaluations. The analytical solution for the total heat is determined by (Freire et al., 1990):
[formula] where Q is the total heat, V is the cell volume, ΔH is the enthalpy, M is the macromolecule concentration (the binding partner in the cell), n is the binding stoichiometry, L is the ligand concentration (the binding partner in the syringe), and K is the association constant. Data were fit to this model using Origin version 5 (MicroCal, Inc.). Surface Plasmon Resonance
The peptide was dissolved in 20 mM cacodylate (pH 6.8), 20 mM NaCl at a final concentration of 1 mM. MMP-9 was dialyzed into the same buffer at a final concentration of 20 μM. […]

[1] = system: normal human dermal fibroblasts (Clonetics, CC-2509); assay: Fibroblast proliferation assay; format: cell-based; details: 28 hours
Method: A human skin fibroblast cell line (Clonetics, Walkersville, Md., normal human dermal fibroblasts, neonatal, catalog number CC-2509) was tested to ascertain whether exposure to a peptide of the invention would stimulate cellular proliferation. The proliferative response of the human skin fibroblast cell line to thel 9mer peptide (SEQ ID NO:11) was measured in a 96-well assay system using serum-free medium as a control. […] Plates were incubated for 24 hours at 37° C. in a humidified 5% CO2 atmosphere. After incubation, the medium was aspirated and the wells were rinsed twice with 100 μl of serum-free DMEM. […] In addition, 100 μl of vehicle (serum-free DMEM) was added to 10 wells as control. All wells were incubated for 28 hours at 37° C. in a humidified, 5% CO2 atmosphere. After incubation, 20 μl of Cell Titer 96 Aqueous One Solution was added to all wells. The plates were swirled gently and placed back in the incubator for 45 minutes and spectrophotometric absorbance was read at 490 nm. Results were analyzed statistically using one-way ANOVA.

[2] = Viability assay (MTT) in EpiDerm skin model; format: cell-based; details: human, EpiDerm skin model (MatTek), relative to PBS control, average over 500 μM and 2 mM, read-out: total average viability
Source text: FIG. 16 provides a bar graph showing the percent living cells, relative to a positive control, in a skin model after treatment with two concentrations of peptide. The first sample, treated with phosphate buffered saline (PBS), is the positive control used to establish the cell count representing 100% viability. The second sample is a negative control where cells were exposed to 1% Triton-X100, showing that the assay can detect cell death. […] Data shown represent the average of three tests.
The sample containers were transferred to 6 well plates that contained fresh media. All peptides were dissolved in PBS at a final concentration of 10 mM, and 100 μL each peptide solution was pipetted onto the surface of the Epiderm sample container. Incubation was continued for 12 hours at 37° C., 5% CO2. After the incubation period, the sample containers were washed three times with PBS and the sample containers were transferred to a 24 well plate that contained 300 μL of MTT assay media per well (MTT concentration was 1 mg/mL). The colorimetric assay was allowed to develop for three hours (incubation at 37° C., 5% CO2). Sample containers were then transferred to a 24 well culture plate that contained 2 mL of isopropanol per well. Extraction of the colored precipitate occurred over a period of four hours at room temperature. Absorbance readings were taken at 570 nm and 650 nm for each sample. The percent viability of each sample relative to a PBS control was calculated as: 100×(OD570^sam−OD650^sam)/(OD570^con−OD650^con) (6) Routinely, the peptide sample was assayed in triplicate. Results The sequence of matrix metalloproteinase-2 (SEQ ID NO:14) is provided below to facilitate definition of the various domains and regions in matrix metalloproteinases.

[3] = system: normal human epidermal keratinocytes (Clonetics, CC-2503); assay: Keratinocyte proliferation assay; format: cell-based; details: 48 hours
Method: The proliferative response of these human skin keratinocytes to the 19mer peptide (SEQ ID NO:11) was measured in a 96-well assay system using keratinocyte basal medium (KBM, Clonetics, catalog number CC-3103) as a control. […] The plates were incubated for 24 hours at 37° C. in a humidified 5% CO2 atmosphere. […] In addition, 100 μl of vehicle KBM was added to 10 wells as control. The plate was incubated for 48 hours at 37° C. in a humidified, 5% CO2 atmosphere. After incubation, 20 μl of Cell Titer 96 Aqueous One Solution was added to all wells. The plate was swirled gently and placed back in the incubator for 3 hours. The spectrophotometric absorbance of each well was read at 490 nm. Results were analyzed statistically using one-way ANOVA.

Sequence of pro-MMP-9 (P14780 20-707): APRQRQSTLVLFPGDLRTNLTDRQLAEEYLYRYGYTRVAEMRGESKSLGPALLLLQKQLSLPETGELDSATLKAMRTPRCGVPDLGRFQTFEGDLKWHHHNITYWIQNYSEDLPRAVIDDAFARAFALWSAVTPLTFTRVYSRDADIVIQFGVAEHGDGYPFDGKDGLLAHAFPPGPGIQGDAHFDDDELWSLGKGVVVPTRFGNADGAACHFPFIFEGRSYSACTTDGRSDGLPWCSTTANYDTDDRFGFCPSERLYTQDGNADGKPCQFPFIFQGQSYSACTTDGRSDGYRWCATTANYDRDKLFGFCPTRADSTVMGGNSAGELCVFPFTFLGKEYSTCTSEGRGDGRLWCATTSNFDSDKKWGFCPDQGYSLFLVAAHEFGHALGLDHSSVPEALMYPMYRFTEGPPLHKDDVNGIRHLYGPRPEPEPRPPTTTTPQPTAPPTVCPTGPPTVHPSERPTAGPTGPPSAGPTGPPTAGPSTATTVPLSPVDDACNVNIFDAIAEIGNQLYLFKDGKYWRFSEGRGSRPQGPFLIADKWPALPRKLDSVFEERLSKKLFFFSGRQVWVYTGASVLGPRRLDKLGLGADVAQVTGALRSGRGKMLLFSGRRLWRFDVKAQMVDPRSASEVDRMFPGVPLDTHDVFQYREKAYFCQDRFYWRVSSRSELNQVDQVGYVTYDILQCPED

SMILES: CC(C)[C@H](NC(=O)[C@H](CC(=O)O)NC(=O)[C@@H]1CCCN1C(=O)[C@H](CC(N)=O)NC(=O)CNC(=O)[C@H](CS)NC(=O)[C@H](CCCNC(=N)N)NC(=O)[C@@H]1CCCN1)C(=O)N[C@@H](C)C(=O)N[C@@H](CC(N)=O)C(=O)N[C@@H](Cc1ccc(O)cc1)C(=O)N[C@@H](CC(N)=O)C(=O)N[C@@H](Cc1ccccc1)C(=O)N[C@@H](Cc1ccccc1)C(=O)N1CCC[C@H]1C(=O)N[C@@H](CCCNC(=N)N)C(=O)N[C@@H](CCCCN)C(=O)N1CCC[C@H]1C(=O)N[C@@H](CCCCN)C(=O)O [19-mer]
- conversion of pro-MMP-9 into prodomain and active enzyme by stromilysin (pro-MMP-9): prevents the conversion of pro-MMP-9 into the prodomain and the active enzyme
- Kd (MMP-9): 606 nM
- Stoichiometry (MMP-9; ITC, 1 mM peptide into 20 μM MMP-9, 20 mM cacodylate (pH 6.8), 20 mM NaCl): 0.975 ± 0.02
- fibroblast growth (OD 490 nm) versus control ([1]; 1×10^−4 M): even greater cell growth
- fibroblast growth (OD 490 nm) versus control ([1]; 1×10^−5 M): significantly greater cell density
- fibroblast growth (OD 490 nm) versus control ([1]; 1×10^−6 M): a small amount of cell proliferation
- viability at 12 h [2]: 97.6%
- keratinocyte growth (OD 490 nm) versus control ([3]; 1×10^−4 M): even greater cell growth
- keratinocyte growth (OD 490 nm) versus control ([3]; 1×10^−5 M): significantly greater cell density
- keratinocyte growth (OD 490 nm) versus control ([3]; 1×10^−6 M): only a small amount of cell proliferation
